Results published in article PMC7916669, “Chemical Constituent Profiling of Phyllostachys heterocycla var. Pubescens with Selective Cytotoxic Polar Fraction through EGFR Inhibition in HepG2 Cells” (Molecules, 2021).

Biological target: T1, EGFR (epidermal growth factor receptor tyrosine kinase) (Homo sapiens, UniProt P00533)
T1 construct: EGFR cytoplasmic domain (EGFR-CD, amino acids 645–1186), (His)6-tagged
Experiment: EGFR-TK autophosphorylation assay, DELFIA/time-resolved fluorometry, recombinant enzyme
Type: biochemical
Settings: read-out: In Vitro EGFR Activity(nM) *

T1 sequence (P00533 669-1210): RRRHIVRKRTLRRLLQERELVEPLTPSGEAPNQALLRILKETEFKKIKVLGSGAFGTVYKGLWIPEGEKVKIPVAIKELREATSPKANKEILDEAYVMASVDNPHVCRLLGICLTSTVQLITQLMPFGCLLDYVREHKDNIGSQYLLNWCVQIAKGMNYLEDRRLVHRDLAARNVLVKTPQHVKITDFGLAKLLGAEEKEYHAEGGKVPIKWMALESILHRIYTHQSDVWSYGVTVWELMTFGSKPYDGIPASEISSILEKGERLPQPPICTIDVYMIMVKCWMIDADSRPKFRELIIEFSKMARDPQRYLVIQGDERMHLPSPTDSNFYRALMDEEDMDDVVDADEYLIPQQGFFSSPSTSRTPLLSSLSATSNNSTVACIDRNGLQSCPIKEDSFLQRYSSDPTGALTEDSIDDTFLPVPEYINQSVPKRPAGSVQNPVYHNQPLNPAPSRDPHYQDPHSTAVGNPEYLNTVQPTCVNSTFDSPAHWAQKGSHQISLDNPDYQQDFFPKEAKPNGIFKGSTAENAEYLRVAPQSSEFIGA

## COC(=O)/C=C/c1ccc(O)cc1OC [compound 1, 7-hydroxy, 5-methoxy, methyl cinnamate]
  IC50: 98.6 nM
